Assays:
Type in all cases: in vivo
[1] = test system: Abutilon theophrasti Medic.; experiment: Bioassay of herbicidal activity in greenhouse (further screening)
Summary of the method: (§1)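 Visual growth inhibition rating (0–100%; 100 = weeds dead or not emerged) after track-sprayer application of compounds formulated as emulsifiable concentrates. Sprays given 24 h post-sowing (pre-emergence) or at 2–3-leaf (grasses) / 2–4-leaf (broad-leaves) stage, greenhouse-grown plants.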

[2] = test system: Setaria glauca (L.) Beauv.; experiment: as above
Summary of the method: as §1

Zinnia elegans Jacq. = experiment: as above
Summary of the method: as §1

[3] = test system: Echinochloa crus-galli (L.) Beauv.; experiment: as above
Summary of the method: as §1

[4] = test system: broad-leaf weeds and grass weeds; experiment: General screening of herbicidal activity in greenhouse; settings: 1000 g a.i./hm^2;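 further: 0 means no visible effect and 100 means all weeds dead or not emerged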
Summary of the method: as §1

rice = experiment: Crop safety study in greenhouse; settings: 7.5-37.5 g a.i./hm^2; pre-emergence and post-emergence application
From the text: (§2) Seeds of soybean, cotton, maize, wheat and rice were sown in nutrition soil in paper pot (9 cm diameter), covered with soil in 1 cm and grown in the greenhouse under good growth conditions (temperature, atmospheric humidity, water supply). The compounds of the present invention as emulsifiable concentrate, were applied in pre-emergence and post-emergence treatment by track sprayer (Engineer Research Ltd., pressure 1.95 kg/cm^2, volume 500 L/hm^2, track speed 1.48 km/h). Pre-emergence treatment was conducted after seeding 24 hours and post-emergence treatment was done when the respective weeds reached predetermined leaf stage (soybean and cotton at 2- to 4-leaf stage and maize, wheat and rice at 3-leaf stage), the state of growth of the respective crops were visually observed to determine the safety in accordance with the following evaluation standard.
(§3) Safety rating scale (%): 0 means no damage to crops; 100 means to kill crops completely.

wheat = experiment: Crop safety study in greenhouse; settings: 7.5-37.5 g a.i./hm^2; pre-emergence and post-emergence application
From the text: as §2, §3

maize = experiment: Crop safety study in greenhouse; settings: 7.5-37.5 g a.i./hm^2; pre-emergence and post-emergence application
From the text: as §2, §3

CC(C)C(=O)OCC1(C)CC(c2cc(-n3c(=O)cc(C(F)(F)F)n(C)c3=O)c(F)cc2Cl)=NO1 (stereo not shown) [Compound 46]
Growth inhibition rate, Post-emergence treatment, Abutilon theophrasti Medic. ([1]; dose 7.5 g a.i./hm^2): 98%
Growth inhibition rate, Post-emergence treatment, Abutilon theophrasti Medic. ([1]; dose 15 g a.i./hm^2): 100%
Growth inhibition rate, Post-emergence treatment, Abutilon theophrasti Medic. ([1]; dose 37.5 g a.i./hm^2): 100%
Growth inhibition rate, Post-emergence treatment, Abutilon theophrasti Medic. ([1]; dose 150 g a.i./hm^2): 100%
Growth inhibition rate, Post-emergence treatment, Abutilon theophrasti Medic. ([1]; dose 600 g a.i./hm^2): 100%
Growth inhibition rate, Pre-emergence treatment, Abutilon theophrasti Medic. ([1]; dose 7.5 g a.i./hm^2): 50%
Growth inhibition rate, Pre-emergence treatment, Abutilon theophrasti Medic. ([1]; dose 15 g a.i./hm^2): 100%
Growth inhibition rate, Pre-emergence treatment, Abutilon theophrasti Medic. ([1]; dose 37.5 g a.i./hm^2): 100%
Growth inhibition rate, Pre-emergence treatment, Abutilon theophrasti Medic. ([1]; dose 150 g a.i./hm^2): 100%
Growth inhibition rate, Pre-emergence treatment, Abutilon theophrasti Medic. ([1]; dose 600 g a.i./hm^2): 100%
Growth inhibition rate, Post-emergence treatment, Setaria glauca (L.) Beauv. ([2]; dose 7.5 g a.i./hm^2): 45%
Growth inhibition rate, Post-emergence treatment, Setaria glauca (L.) Beauv. ([2]; dose 15 g a.i./hm^2): 55%
Growth inhibition rate, Post-emergence treatment, Setaria glauca (L.) Beauv. ([2]; dose 37.5 g a.i./hm^2): 55%
Growth inhibition rate, Post-emergence treatment, Setaria glauca (L.) Beauv. ([2]; dose 150 g a.i./hm^2): 80%
Growth inhibition rate, Post-emergence treatment, Setaria glauca (L.) Beauv. ([2]; dose 600 g a.i./hm^2): 100%
Growth inhibition rate, Pre-emergence treatment, Setaria glauca (L.) Beauv. ([2]; dose 7.5 g a.i./hm^2): 75%
Growth inhibition rate, Pre-emergence treatment, Setaria glauca (L.) Beauv. ([2]; dose 15 g a.i./hm^2): 60%
Growth inhibition rate, Pre-emergence treatment, Setaria glauca (L.) Beauv. ([2]; dose 37.5 g a.i./hm^2): 95%
Growth inhibition rate, Pre-emergence treatment, Setaria glauca (L.) Beauv. ([2]; dose 150 g a.i./hm^2): 100%
Growth inhibition rate, Pre-emergence treatment, Setaria glauca (L.) Beauv. ([2]; dose 600 g a.i./hm^2): 100%
Growth inhibition rate, Post-emergence treatment, Zinnia elegans Jacq. (Zinnia elegans Jacq.; dose 7.5 g a.i./hm^2): 98%
Growth inhibition rate, Post-emergence treatment, Zinnia elegans Jacq. (Zinnia elegans Jacq.; dose 15 g a.i./hm^2): 98%
Growth inhibition rate, Post-emergence treatment, Zinnia elegans Jacq. (Zinnia elegans Jacq.; dose 37.5 g a.i./hm^2): 100%
Growth inhibition rate, Post-emergence treatment, Zinnia elegans Jacq. (Zinnia elegans Jacq.; dose 150 g a.i./hm^2): 100%
Growth inhibition rate, Post-emergence treatment, Zinnia elegans Jacq. (Zinnia elegans Jacq.; dose 600 g a.i./hm^2): 100%
Growth inhibition rate, Pre-emergence treatment, Zinnia elegans Jacq. (Zinnia elegans Jacq.; dose 7.5 g a.i./hm^2): 40%
Growth inhibition rate, Pre-emergence treatment, Zinnia elegans Jacq. (Zinnia elegans Jacq.; dose 15 g a.i./hm^2): 45%
Growth inhibition rate, Pre-emergence treatment, Zinnia elegans Jacq. (Zinnia elegans Jacq.; dose 37.5 g a.i./hm^2): 95%
Growth inhibition rate, Pre-emergence treatment, Zinnia elegans Jacq. (Zinnia elegans Jacq.; dose 150 g a.i./hm^2): 100%
Growth inhibition rate, Pre-emergence treatment, Zinnia elegans Jacq. (Zinnia elegans Jacq.; dose 600 g a.i./hm^2): 100%
Growth inhibition rate, Post-emergence treatment, Echinochloa crus-galli (L.) Beauv. ([3]; dose 7.5 g a.i./hm^2): 20%
Growth inhibition rate, Post-emergence treatment, Echinochloa crus-galli (L.) Beauv. ([3]; dose 15 g a.i./hm^2): 25%
Growth inhibition rate, Post-emergence treatment, Echinochloa crus-galli (L.) Beauv. ([3]; dose 37.5 g a.i./hm^2): 30%
Growth inhibition rate, Post-emergence treatment, Echinochloa crus-galli (L.) Beauv. ([3]; dose 150 g a.i./hm^2): 75%
Growth inhibition rate, Post-emergence treatment, Echinochloa crus-galli (L.) Beauv. ([3]; dose 600 g a.i./hm^2): 98%
Growth inhibition rate, Pre-emergence treatment, Echinochloa crus-galli (L.) Beauv. ([3]; dose 7.5 g a.i./hm^2): 10%
Growth inhibition rate, Pre-emergence treatment, Echinochloa crus-galli (L.) Beauv. ([3]; dose 15 g a.i./hm^2): 15%
Growth inhibition rate, Pre-emergence treatment, Echinochloa crus-galli (L.) Beauv. ([3]; dose 37.5 g a.i./hm^2): 50%
Growth inhibition rate, Pre-emergence treatment, Echinochloa crus-galli (L.) Beauv. ([3]; dose 150 g a.i./hm^2): 95%
Growth inhibition rate, Pre-emergence treatment, Echinochloa crus-galli (L.) Beauv. ([3]; dose 600 g a.i./hm^2): 100%
pre-emergence and post-emergence herbicidal activity against broad-leaf weeds and grass weeds [4]: good
Crop safety, rice (rice): good safety
Crop safety, wheat (wheat): good safety
Crop safety, maize (maize): good safety

Cn1c(C(F)(F)F)cc(=O)n(-c2cc(C3=NOC(C)(COC(=O)COc4ccc(Cl)cc4Cl)C3)c(Cl)cc2F)c1=O (stereo not shown) [Compound 83]
Growth inhibition rate, Post-emergence treatment, Abutilon theophrasti Medic. ([1]; dose 7.5 g a.i./hm^2): 65%
Growth inhibition rate, Post-emergence treatment, Abutilon theophrasti Medic. ([1]; dose 15 g a.i./hm^2): 98%
Growth inhibition rate, Post-emergence treatment, Abutilon theophrasti Medic. ([1]; dose 37.5 g a.i./hm^2): 100%
Growth inhibition rate, Post-emergence treatment, Abutilon theophrasti Medic. ([1]; dose 150 g a.i./hm^2): 100%
Growth inhibition rate, Post-emergence treatment, Abutilon theophrasti Medic. ([1]; dose 600 g a.i./hm^2): 100%
Growth inhibition rate, Pre-emergence treatment, Abutilon theophrasti Medic. ([1]; dose 7.5 g a.i./hm^2): 0%
Growth inhibition rate, Pre-emergence treatment, Abutilon theophrasti Medic. ([1]; dose 15 g a.i./hm^2): 30%
Growth inhibition rate, Pre-emergence treatment, Abutilon theophrasti Medic. ([1]; dose 37.5 g a.i./hm^2): 50%
Growth inhibition rate, Pre-emergence treatment, Abutilon theophrasti Medic. ([1]; dose 150 g a.i./hm^2): 100%
Growth inhibition rate, Pre-emergence treatment, Abutilon theophrasti Medic. ([1]; dose 600 g a.i./hm^2): 100%
Growth inhibition rate, Post-emergence treatment, Setaria glauca (L.) Beauv. ([2]; dose 7.5 g a.i./hm^2): 30%
Growth inhibition rate, Post-emergence treatment, Setaria glauca (L.) Beauv. ([2]; dose 15 g a.i./hm^2): 45%
Growth inhibition rate, Post-emergence treatment, Setaria glauca (L.) Beauv. ([2]; dose 37.5 g a.i./hm^2): 50%
Growth inhibition rate, Post-emergence treatment, Setaria glauca (L.) Beauv. ([2]; dose 150 g a.i./hm^2): 70%
Growth inhibition rate, Post-emergence treatment, Setaria glauca (L.) Beauv. ([2]; dose 600 g a.i./hm^2): 85%
Growth inhibition rate, Pre-emergence treatment, Setaria glauca (L.) Beauv. ([2]; dose 7.5 g a.i./hm^2): 10%
Growth inhibition rate, Pre-emergence treatment, Setaria glauca (L.) Beauv. ([2]; dose 15 g a.i./hm^2): 15%
Growth inhibition rate, Pre-emergence treatment, Setaria glauca (L.) Beauv. ([2]; dose 37.5 g a.i./hm^2): 35%
Growth inhibition rate, Pre-emergence treatment, Setaria glauca (L.) Beauv. ([2]; dose 150 g a.i./hm^2): 80%
Growth inhibition rate, Pre-emergence treatment, Setaria glauca (L.) Beauv. ([2]; dose 600 g a.i./hm^2): 100%
Growth inhibition rate, Post-emergence treatment, Zinnia elegans Jacq. (Zinnia elegans Jacq.; dose 7.5 g a.i./hm^2): 65%
Growth inhibition rate, Post-emergence treatment, Zinnia elegans Jacq. (Zinnia elegans Jacq.; dose 15 g a.i./hm^2): 90%
Growth inhibition rate, Post-emergence treatment, Zinnia elegans Jacq. (Zinnia elegans Jacq.; dose 37.5 g a.i./hm^2): 98%
Growth inhibition rate, Post-emergence treatment, Zinnia elegans Jacq. (Zinnia elegans Jacq.; dose 150 g a.i./hm^2): 100%
Growth inhibition rate, Post-emergence treatment, Zinnia elegans Jacq. (Zinnia elegans Jacq.; dose 600 g a.i./hm^2): 100%
Growth inhibition rate, Pre-emergence treatment, Zinnia elegans Jacq. (Zinnia elegans Jacq.; dose 7.5 g a.i./hm^2): 0%
Growth inhibition rate, Pre-emergence treatment, Zinnia elegans Jacq. (Zinnia elegans Jacq.; dose 15 g a.i./hm^2): 10%
Growth inhibition rate, Pre-emergence treatment, Zinnia elegans Jacq. (Zinnia elegans Jacq.; dose 37.5 g a.i./hm^2): 50%
Growth inhibition rate, Pre-emergence treatment, Zinnia elegans Jacq. (Zinnia elegans Jacq.; dose 150 g a.i./hm^2): 100%
Growth inhibition rate, Pre-emergence treatment, Zinnia elegans Jacq. (Zinnia elegans Jacq.; dose 600 g a.i./hm^2): 100%
Growth inhibition rate, Post-emergence treatment, Echinochloa crus-galli (L.) Beauv. ([3]; dose 7.5 g a.i./hm^2): 25%
Growth inhibition rate, Post-emergence treatment, Echinochloa crus-galli (L.) Beauv. ([3]; dose 15 g a.i./hm^2): 25%
Growth inhibition rate, Post-emergence treatment, Echinochloa crus-galli (L.) Beauv. ([3]; dose 37.5 g a.i./hm^2): 30%
Growth inhibition rate, Post-emergence treatment, Echinochloa crus-galli (L.) Beauv. ([3]; dose 150 g a.i./hm^2): 45%
Growth inhibition rate, Post-emergence treatment, Echinochloa crus-galli (L.) Beauv. ([3]; dose 600 g a.i./hm^2): 90%
Growth inhibition rate, Pre-emergence treatment, Echinochloa crus-galli (L.) Beauv. ([3]; dose 7.5 g a.i./hm^2): 10%
Growth inhibition rate, Pre-emergence treatment, Echinochloa crus-galli (L.) Beauv. ([3]; dose 15 g a.i./hm^2): 10%
Growth inhibition rate, Pre-emergence treatment, Echinochloa crus-galli (L.) Beauv. ([3]; dose 37.5 g a.i./hm^2): 25%
Growth inhibition rate, Pre-emergence treatment, Echinochloa crus-galli (L.) Beauv. ([3]; dose 150 g a.i./hm^2): 90%
Growth inhibition rate, Pre-emergence treatment, Echinochloa crus-galli (L.) Beauv. ([3]; dose 600 g a.i./hm^2): 100%
pre-emergence and post-emergence herbicidal activity against broad-leaf weeds and grass weeds [4]: good
Crop safety, rice (rice): good safety
Crop safety, wheat (wheat): good safety
Crop safety, maize (maize): good safety

Reference: US10550111B2, “Pyrimidine urea compound containing isoxazolines and use thereof” (SHENYANG SINOCHEM AGROCHEMICALS R&D CO., LTD, priority 2014, dated 2020)
